Columns and labels:
[1] = tested on: RS4;11 (BCL-2 dependent acute lymphoblastic leukemia cell line); experiment: RS4;11 Cell Proliferation Assay; format: cell-based; conditions: Homo sapiens, RS4-11, RS4;11 cells, read-out: Cellular proliferation assay (IC50, nM) RS4
In short: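 Viability measured via CellTiter-Glo luminescence after a 48 h, 37 °C exposure to compounds (10 points, highest 1 μM). Seeding was 50,000 RS4;11 cells per well in 10% FBS RPMI-1640; IC50 given as mean.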

[2] = tested on: BCL-2 G101V knock-in cell line H96 (derive from RS4;11); experiment: Bcl 2-G101V Knock-In RS4;11 Cell Proliferation Assay; format: cell-based; conditions: Homo sapiens, RS4;11 Bcl-2 G101V knock-in clone H96, 48 hrs, CellTiter-GLO, read-out: Cellular proliferation assay (IC50, nM) RS4
In short: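 CellTiter-Glo luminescence after 48 h, 37 °C compound treatment (10 concentrations, maximum 1 μM or 10 μM) gave mean IC50 values. Cells were 50,000 per well of H96, a BCL2-G101V knock-in single clone derived from RS4;11 by Cas9 editing.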

[3] = tested on: recombinant human Bcl-2-G101V protein; experiment: Bcl-2-G101V TR-FRET Assay; format: binding; conditions: ratio of biochemical IC50 Bcl-2 G101V / Bcl-2 WT
In short: (§1)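 Compounds were titrated at increasing concentrations against the Bcl-2-G101V–ligand interaction. TR-FRET signals were then read (ex 337 nm; em 490/520 nm). Percent inhibition was derived from the 490-to-520 nm ratio, and IC50 from a four-parameter logistic equation.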

[4] = molecular target: recombinant human Bcl-2-G101V protein (Homo sapiens (Human), UniProt P10415, G101V); experiment: Bcl-2-G101V TR-FRET Assay; format: binding; conditions: Bcl-2 G101V mutant, TR-FRET; read-out: Biochemical assay (IC50, nM) Bcl-2 G101V
In short: as §1

[5] = molecular target: Recombinant human Bcl-2 protein (Homo sapiens (Human), UniProt P10415); experiment: Bcl-2 TR-FRET Assay; format: binding; conditions: Bcl-2 wild type, TR-FRET; read-out: Biochemical assay (IC50, nM) Bcl-2 WT
In short: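 In pH 7.5 phosphate buffer containing NaCl, EDTA, Tween-20 and BSA, 0.05 nM Bcl-2 saw serially diluted compound for 0.5 h before 0.5 nM FITC-Bak peptide was added. Signal ratio at 520/490 nm after 1 h yielded IC50.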

Row | SMILES | IC50 [1] | IC50 [2] | Ratio of Bcl-2 G101V/WT [3] | IC50 [4] | IC50 [5]
1 | COc1cc(CN2CCN(C3CC4(C3)CN(c3ccc(C(=O)NS(=O)(=O)c5ccc(NC[C@H]6CC[C@](C)(O)CC6)c([N+](=O)[O-])c5)c(Oc5cnc6[nH]cc(F)c6c5)c3)C4)[C@H](c3ccccc3C(C)C)C2)cc2c1OCCC2(C)C [Example 333, 2-((3-fluoro-1H-pyrrolo[2,3-b]pyridin-5-yl)oxy)-N-((4-((((1r,4r)-4-hydroxy-4-methylcyclohexyl)methyl)amino)-3-nitrophenyl)sulfonyl)-4-(6-((R)-2-(2-isopropylphenyl)-4-((8-methoxy-4,4-dimethylchroman-6-yl)methyl)piperazin-1-yl)-2-azaspiro[3.3]heptan-2-yl) benzamide] | 0.13 nM | 0.26 nM | 3.2 | 0.37 nM | 0.11 nM
2 | COc1cc(CN2CCN(C3CC4(C3)CN(c3ccc(C(=O)NS(=O)(=O)c5ccc(NC[C@H]6CC[C@](C)(O)CC6)c([N+](=O)[O-])c5)c(Oc5cnc6[nH]ccc6c5)c3)C4)[C@H](c3ccccc3C(C)C)C2)cc(F)c1OC [Example 245, 2-((1H-pyrrolo[2,3-b]pyridin-5-yl)oxy)-4-(6-((R)-4-(3-fluoro-4,5-dimethoxybenzyl)-2-(2-isopropylphenyl)piperazin-1-yl)-2-azaspiro[3.3]heptan-2-yl)-N-((4-((((1r,4r)-4-hydroxy-4-methylcyclohexyl)methyl)amino)-3-nitrophenyl)sulfonyl)benzamide] | 0.15 nM | 0.53 nM | 2.5 | 0.32 nM | 0.13 nM
3 | COc1ccc(CN2CCN(C3CC4(CCN(c5ccc(C(=O)NS(=O)(=O)c6ccc(NC[C@H]7CC[C@](C)(O)CC7)c([N+](=O)[O-])c6)c(Oc6cnc7[nH]ccc7c6)c5)CC4)C3)C(c3ccccc3CN3CCOCC3)C2)cc1 (stereo partly drawn) [Example 37, 2-((1H-pyrrolo[2,3-b]pyridin-5-yl)oxy)-N-((4-((((1r,4r)-4-hydroxy-4-methylcyclohexyl)methyl)amino)-3-nitrophenyl)sulfonyl)-4-(2-(4-(4-methoxybenzyl)-2-(2-(morpholinomethyl)phenyl)piperazin-1-yl)-7-azaspiro[3.5]nonan-7-yl)benzamide] | 77.4 nM | 289 nM | 28.6 | 12 nM | 0.42 nM
4 | CC(C)c1ccccc1C1CN(Cc2cccc3c2N(C)CCO3)CCN1C1CC2(CCN(c3ccc(C(=O)NS(=O)(=O)c4ccc(NC[C@H]5CC[C@](C)(O)CC5)c([N+](=O)[O-])c4)c(Oc4cnc5[nH]ccc5c4)c3)CC2)C1 (stereo partly drawn) [Example 200, 2-((1H-pyrrolo[2,3-b]pyridin-5-yl)oxy)-N-((4-((((1r,4r)-4-hydroxy-4-methylcyclohexyl)methyl)amino)-3-nitrophenyl)sulfonyl)-4-(2-(2-(2-isopropylphenyl)-4-((4-methyl-3,4-dihydro-2H-benzo[b][1,4]oxazin-5-yl)methyl)piperazin-1-yl)-7-azaspiro[3.5]nonan-7-yl) benzamide] | 0.27 nM | 1.6 nM | 4.2 | 1.02 nM | 0.24 nM
5 | COc1cc(CN2CCN(C3CC4(C3)CN(c3ccc(C(=O)NS(=O)(=O)c5ccc(NC[C@H]6CC[C@](C)(O)CC6)c([N+](=O)[O-])c5)c(Oc5cnc6[nH]cc(F)c6c5)c3)C4)[C@H](c3ccccc3C(C)C)C2)cc2occc12 [Example 332, 2-((3-fluoro-1H-pyrrolo[2,3-b]pyridin-5-yl)oxy)-N-((4-((((1r,4r)-4-hydroxy-4-methylcyclohexyl)methyl)amino)-3-nitrophenyl)sulfonyl)-4-(6-((R)-2-(2-isopropylphenyl)-4-((4-methoxybenzofuran-6-yl)methyl)piperazin-1-yl)-2-azaspiro[3.3]heptan-2-yl)benzamide] | 0.17 nM | 0.54 nM | 1.6 | 1.1 nM | 0.7 nM
6 | COc1cc(CN2CCN(C3CC4(C3)CN(c3ccc(C(=O)NS(=O)(=O)c5ccc(NC[C@H]6CC[C@](C)(O)CC6)c([N+](=O)[O-])c5)c(Oc5cnc6[nH]cc(F)c6c5)c3)C4)[C@H](c3ccccc3C(C)C)C2)cc2c1OC(C)(C)C=C2 [Example 330, 2-((3-fluoro-1H-pyrrolo[2,3-b]pyridin-5-yl)oxy)-N-((4-((((1r,4r)-4-hydroxy-4-methylcyclohexyl)methyl)amino)-3-nitrophenyl)sulfonyl)-4-(6-((R)-2-(2-isopropylphenyl)-4-((8-methoxy-2,2-dimethyl-2H-chromen-6-yl)methyl)piperazin-1-yl)-2-azaspiro [3.3]heptan-2-yl)benzamide] | 0.18 nM | 0.79 nM | 2.4 | 0.62 nM | 0.26 nM
7 | COc1cc(CN2CCN(C3CC4(C3)CN(c3ccc(C(=O)NS(=O)(=O)c5ccc(NC[C@H]6CC[C@](C)(O)CC6)c([N+](=O)[O-])c5)c(Oc5cnc6[nH]cc(F)c6c5)c3)C4)[C@H](c3ccccc3C(C)C)C2)cc2c1OCCC2(F)F [Example 354, 4-(6-((R)-4-((4,4-difluoro-8-methoxychroman-6-yl)methyl)-2-(2-isopropylphenyl)piperazin-1-yl)-2-azaspiro[3.3]heptan-2-yl)-2-((3-fluoro-1H-pyrrolo[2,3-b]pyridin-5-yl)oxy)-N-((4-((((1r,4r)-4-hydroxy-4-methylcyclohexyl)methyl)amino)-3-nitrophenyl)sulfonyl)benzamide] | 0.14 nM | 3 nM | 2.2 | 1.9 nM | 0.9 nM
8 | COc1ccc(CN2CCN(C3CC4(CCN(c5ccc(C(=O)NS(=O)(=O)c6ccc(NC[C@H]7CC[C@](C)(O)CC7)c([N+](=O)[O-])c6)c(Oc6cnc7[nH]ccc7c6)c5)CC4)C3)C(c3ccccc3C(C)C)C2)cc1Br (stereo partly drawn) [Example 143, 2-((1H-pyrrolo[2,3-b]pyridin-5-yl)oxy)-4-(2-(4-(3-bromo-4-methoxybenzyl)-2-(2-isopropylphenyl)piperazin-1-yl)-7-azaspiro[3.5]nonan-7-yl)-N-((4-((((1r,4r)-4-hydroxy-4-methylcyclohexyl)methyl)amino)-3-nitrophenyl)sulfonyl)benzamide] | 0.674 nM | 5.15 nM | 5.5 | 2.6 nM | 0.48 nM
9 | COc1ccc(CN2CCN(C3CC4(C3)CN(c3ccc(C(=O)NS(=O)(=O)c5ccc(NC[C@H]6CC[C@](C)(O)CC6)c([N+](=O)[O-])c5)c(Oc5cnc6[nH]cc(F)c6c5)c3)C4)[C@@H](c3ccccc3C(C)C)C2)cc1OC [Example 141b, 4-(6-((S)-4-(3,4-dimethoxybenzyl)-2-(2-isopropylphenyl)piperazin-1-yl)-2-azaspiro[3.3]heptan-2-yl)-2-((3-fluoro-1H-pyrrolo[2,3-b]pyridin-5-yl)oxy)-N-((4-((((1r,4r)-4-hydroxy-4-methylcyclohexyl)methyl)amino)-3-nitrophenyl)sulfonyl)benzamide] | 0.659 nM | 4.09 nM | 40 | 2.3 nM | 0.059 nM
10 | CC(C)c1ccccc1[C@@H]1CN(Cc2ccc(F)c(F)c2)CCN1C1CC2(C1)CN(c1ccc(C(=O)NS(=O)(=O)c3ccc(NC[C@H]4CC[C@](C)(O)CC4)c([N+](=O)[O-])c3)c(Oc3cnc4[nH]ccc4c3)c1)C2 [Example 244, 2-((1H-pyrrolo[2,3-b]pyridin-5-yl)oxy)-4-(6-((R)-4-(3,4-difluorobenzyl)-2-(2-isopropylphenyl)piperazin-1-yl)-2-azaspiro[3.3]heptan-2-yl)-N-((4-((((1r,4r)-4-hydroxy-4-methylcyclohexyl)methyl)amino)-3-nitrophenyl)sulfonyl)benzamide] | 0.2 nM | 1.36 nM | 3.3 | 0.83 nM | 0.25 nM
11 | COc1ccc(CN2CCN(C3CC4(CCN(c5ccc(C(=O)NS(=O)(=O)c6ccc(NC[C@H]7CC[C@](C)(O)CC7)c([N+](=O)[O-])c6)c(Oc6cnc7[nH]ccc7c6)c5)CC4)C3)C(c3cc(F)ccc3C(C)C)C2)cc1 (stereo partly drawn) [Example 235] | 0.27 nM | 1.21 nM | 3.8 | 1.1 nM | 0.28 nM
12 | COc1ccc(CN2CCN(C3CC4(CCN(c5ccc(C(=O)NS(=O)(=O)c6ccc(NC[C@H]7CC[C@](C)(O)CC7)c([N+](=O)[O-])c6)c(Oc6cnc7[nH]ccc7c6)c5)CC4)C3)C(c3ccccc3C(C)C)C2)cc1C(C)=O (stereo partly drawn) [Example 212, 2-((1H-pyrrolo[2,3-b]pyridin-5-yl)oxy)-4-(2-(4-(3-acetyl-4-methoxybenzyl)-2-(2-isopropylphenyl)piperazin-1-yl)-7-azaspiro[3.5]nonan-7-yl)-N-((4-((((1r,4r)-4-hydroxy-4-methylcyclohexyl)methyl)amino)-3-nitrophenyl)sulfonyl)benzamide] | 0.3 nM | 2.15 nM | 4.2 | 0.54 nM | 0.13 nM

— patent US20240376097A1, “BCL-2 Inhibitor” (BeiGene Ltd., priority 2020, published 2024)
